Laboratory results published in article PMC6271340, “Synthesis and Anti-Tumor Activity of Novel Aminomethylated Derivatives of Isoliquiritigenin” (Molecules, 2014).
Where “and” joins values, the source holds several entries; their conditions need not be identical. Equal entries are not always repeated.

Legend:
[1] = test system: HO-4980, human ovarian cancer cells; assay: MTT cytotoxicity assay, HO-4980 (HO-8910); assay type: cell-based; settings: 72 h
Method: (§1) We examined the cytotoxicity of ISL nitrogenous derivatives against three cancer cell lines (PC-3, MCF-7 and HO-8910) and normal human THP-1 cells using MTT growth inhibition assays. ISL was used as a positive control. […] The IC50 values were all above 100 µM.
(§2) Cytotoxicity was evaluated against four human cell lines (MCF-7 breast cancer, PC-3 prostatic cancer, HO-8910 ovarian cancer, and THP1 normal cells). Briefly, MCF-7, PC-3 and HO-8910 cells were separately plated in 96-well culture plates (1 × 10^5 cells/well). After 24 h incubation, cells were treated with compounds 7–16 (0, 3.13, 6.25, 12.5, 25, 50 and 100 µM) for 72 h. MTT solution (5 mg/mL) was then added to each well. After 4 h incubation, the formazan precipitate was dissolved in […] dimethyl sulfoxide (DMSO), and then the absorbance was measured in an ELISA reader (Thermo Molecular Devices Co., Union City, CA, USA) at 570 nm. The cell viability ratio was calculated by the following formula: Inhibitory ratio (%) = (1 − ODtreated/ODcontrol) × 100%.

[2] = test system: MCF-7, human breast cancer cells; assay: MTT cytotoxicity assay, MCF-7; assay type: cell-based; settings: MCF7, 72 h
Method: as §1, §2

[3] = MTT cytotoxicity assay, THP-1 normal cells; assay type: cell-based; settings: human, THP-1 cells (called normal cells)
Method: as §1, §2

[4] = test system: PC-3, human prostate cancer cells; assay: MTT cytotoxicity assay, PC-3; assay type: cell-based; settings: 72 h
Method: as §1, §2

S180 sarcoma cells = assay: Anti-tumor activity in S180 tumor-bearing mice; assay type: in vivo; settings: S180 tumor-bearing BALB/c mice
Method: (§3) Female BALB/c mice (6–8 weeks old, 25 ± 2 g) were obtained from the Third Affiliated Hospital of Harbin Medical University. S180 sarcoma cells were purchased from the Experimental Animal Center of Peking University Health Science Center (Heilongjiang, China). The animals were housed in polypropylene cages and maintained under controlled conditions of 12 h light/12 h dark photoperiod and 55 ± 5% relative humidity at room temperature (28 ± 2 °C). After fed in our facility for 1 week, 40 mice were induced S180 tumor cells according to Wu et al. with some modification. All mice were subcutaneously implanted with 1 × 10^6 cells/mice on the right flank. After inoculation for 24 h, all animals were randomly divided into one untreated control group, one treated positive control group and two treated experimental groups (each group contained 10 mice).
(§4) Group I (untreated control) received orally the same volume of 0.9% normal saline once per day as the treated groups. Group II (treated positive control) received orally ISL at a dosage of 40 mg/kg body weight once per day. Group III (low dose of ISL derivative 15 treatment) received ISL derivative 15 orally (dissolved in 0.2 mL normal saline) at a dosage of 40 mg/kg body weight once per day. Group IV (high-dose of ISL derivative 15 treatment) received ISL derivative 15 orally (dissolved in 0.2 mL normal saline) at a dosage of 80 mg/kg body weight once per day.

[5] = Body-weight change as toxicity parameter in S180 tumor-bearing mice; assay type: in vivo; settings: for BWC (%) body-weight change: S180 tumor-bearing BALB/c mice; for Changes in body weight as parameter for toxicity (in words): ISL derivative 15 at 80 or 40 mg/kg, ISL at 40 mg/kg, S180 tumor-bearing mice
Method: For comparison, ISL (40 mg/kg) was analyzed as positive control. Changes in body weight were used as parameter for toxicity.
as §3, §4

Row | Structure (SMILES) | IC50 [1] | melting point | IC50 [2] | IC50 [3] | IC50 [4] | TIR (%) tumor inhibitory rate (S180 sarcoma cells; 40 mg/kg orally once per day) | TW (g) x ± SD (tumor weight) (S180 sarcoma cells; 40 mg/kg orally once per day) | TIR (%) tumor inhibitory rate (S180 sarcoma cells; 80 mg/kg orally once per day) | TW (g) x ± SD (tumor weight) (S180 sarcoma cells; 80 mg/kg orally once per day) | BWC (%) body-weight change ([5]; 40 mg/kg orally once per day) | BWC (%) body-weight change ([5]; 80 mg/kg orally once per day) | Changes in body weight as parameter for toxicity (in words) [5]
1 | CN(C)Cc1c(O)ccc(C(=O)/C=C/c2ccc(O)cc2)c1O [Compound 7, (E)-1-(3-(dimethylaminomethyl)-2,4-dihydroxyphenyl)-3-(4-hydroxyphenyl)prop-2-en-1-one] | > 100 µM | > 176 °C | > 100 µM | > 100 µM | > 100 µM | – | – | – | – | – | – | –
2 | O=C(/C=C/c1ccc(O)cc1)c1ccc(O)c(CN2CCOCC2)c1O [Compound 8, (E)-1-(2,4-dihydroxy-3-(morpholinomethyl)phenyl)-3-(4-hydroxyphenyl)prop-2-en-1-one] | 96.4 µM | > 180 °C | > 100 µM | > 100 µM | 48.6 µM | – | – | – | – | – | – | –
3 | O=C(/C=C/c1ccc(O)cc1)c1ccc(O)c(CNC2CCCCC2)c1O [Compound 9, (E)-1-(3-(cyclohexylaminomethyl)-2,4-dihydroxyphenyl)-3-(4-hydroxyphenyl)prop-2-en-1-one] | > 100 µM | > 168 °C | 73.6 µM | > 100 µM | 28.3 µM | – | – | – | – | – | – | –
4 | CC(C)N(Cc1c(O)ccc(C(=O)/C=C/c2ccc(O)cc2)c1O)C(C)C [Compound 10] | 98.1 µM | > 180 °C | 84.6 µM | > 100 µM | > 100 µM | – | – | – | – | – | – | –
5 | CCN(CC)Cc1c(O)ccc(C(=O)/C=C/c2ccc(O)cc2)c1O [Compound 11, (E)-1-(3-((diethylamino)methyl)-2,4-dihydroxyphenyl)-3-(4-hydroxyphenyl)prop-2-en-1-one] | 97.3 µM | > 176 °C | > 100 µM | > 100 µM | 66 µM | – | – | – | – | – | – | –
6 | CCC(C)NCc1c(O)ccc(C(=O)/C=C/c2ccc(O)cc2)c1O (stereo not shown) [Compound 12, (E)-1-(3-((sec-butylamino)methyl)-2,4-dihydroxyphenyl)-3-(4-hydroxyphenyl)prop-2-en-1-one] | > 100 µM | > 175 °C | 84.8 µM | > 100 µM | 57.1 µM | – | – | – | – | – | – | –
7 | CC(C)(C)NCc1c(O)ccc(C(=O)/C=C/c2ccc(O)cc2)c1O [Compound 13, (E)-1-(3-((tert-butylamino)methyl)-2,4-dihydroxyphenyl)-3-(4-hydroxyphenyl)prop-2-en-1-one] | > 100 µM | > 170 °C | > 100 µM | > 100 µM | > 100 µM | – | – | – | – | – | – | –
8 | O=C(C=Cc1ccc(O)cc1)c1ccc(O)c(CNCCO)c1O [Compound 14, 1-(2,4-dihydroxy-3-((2-hydroxyethylamino)methyl)phenyl)-3-(4-hydroxyphenyl)propen-1-one] | 89 µM | > 180 °C | 66 µM | > 100 µM | 87.7 µM | – | – | – | – | – | – | –
9 | O=C(/C=C/c1ccc(O)cc1)c1ccc(O)c(CN(CCO)CCO)c1O [Compound 15, (E)-1-(3-((bis(2-hydroxyethyl)amino)methyl)-2,4-dihydroxyphenyl)-3-(4-hydroxyphenyl)prop-2-en-1-one] | 37.9 µM | – | 42.9 µM | > 100 µM | 35.1 µM | 39.72% | 0.74 ± 0.618 g | 71.68% | 0.35 ± 0.442 g | +12.8% | +7.8% | Loss of body weight was not found
10 | O=C(/C=C/c1ccc(O)cc1)c1ccc(O)c(CN2CCCC2)c1O [Compound 16] | 74.9 µM | 116.5 to 117.1 °C and 116.5 to 117.4 °C | 81.8 µM | > 100 µM | > 100 µM | – | – | – | – | – | – | –
11 | O=C(/C=C/c1ccc(O)cc1)c1ccc(O)cc1O [ISL, isoliquiritigenin] | 58.4 µM | – | 44.1 µM | > 100 µM | 36.9 µM | 32.44% | 0.85 ± 0.369 g | – | – | −3.0% | – | slight weight loss
